The values below come from ChEMBL document CHEMBL1150977, “A quantitative analysis of kinase inhibitor selectivity” (Nat Biotechnol, 2008).

For test [1], the target named is Dual specificity protein kinase CLK2 (Homo sapiens, UniProt P49760).
Another test has as its target T1, Ephrin type-B receptor 1 (Homo sapiens, UniProt P54762).
T1 sequence (P54762 whole entry): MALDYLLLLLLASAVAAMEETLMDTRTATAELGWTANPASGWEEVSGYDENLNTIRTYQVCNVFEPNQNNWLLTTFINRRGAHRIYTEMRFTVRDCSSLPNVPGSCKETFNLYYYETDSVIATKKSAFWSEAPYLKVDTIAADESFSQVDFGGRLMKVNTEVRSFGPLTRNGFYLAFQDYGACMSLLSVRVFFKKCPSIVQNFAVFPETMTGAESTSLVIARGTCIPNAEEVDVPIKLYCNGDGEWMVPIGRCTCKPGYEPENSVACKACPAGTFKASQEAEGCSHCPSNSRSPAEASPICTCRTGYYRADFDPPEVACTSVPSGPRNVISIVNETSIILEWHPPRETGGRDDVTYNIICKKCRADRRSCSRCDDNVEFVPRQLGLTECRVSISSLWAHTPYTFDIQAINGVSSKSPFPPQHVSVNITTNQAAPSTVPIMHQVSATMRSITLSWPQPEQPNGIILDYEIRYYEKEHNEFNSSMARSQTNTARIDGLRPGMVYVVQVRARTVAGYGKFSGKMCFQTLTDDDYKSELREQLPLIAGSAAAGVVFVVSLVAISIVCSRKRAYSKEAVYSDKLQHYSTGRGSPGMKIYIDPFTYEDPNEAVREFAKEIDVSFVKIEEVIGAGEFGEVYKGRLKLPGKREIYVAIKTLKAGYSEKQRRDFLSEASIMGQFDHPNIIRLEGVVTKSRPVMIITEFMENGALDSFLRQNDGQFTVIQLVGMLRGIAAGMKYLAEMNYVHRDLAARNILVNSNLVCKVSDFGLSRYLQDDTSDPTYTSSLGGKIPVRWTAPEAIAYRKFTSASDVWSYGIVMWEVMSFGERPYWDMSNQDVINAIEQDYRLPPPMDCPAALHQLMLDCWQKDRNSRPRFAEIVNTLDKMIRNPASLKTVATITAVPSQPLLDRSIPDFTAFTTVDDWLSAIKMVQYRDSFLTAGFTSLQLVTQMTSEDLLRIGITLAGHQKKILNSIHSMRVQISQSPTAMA

In another test the target is eIF-2-alpha kinase GCN2 (Homo sapiens, UniProt Q9P2K8, S808G).
Test [2] addresses Protein kinase C theta type (Homo sapiens, UniProt Q04759).
In test [3] the target is T2, Dual specificity mitogen-activated protein kinase kinase 6 (Homo sapiens, UniProt P52564).
T2 sequence (P52564 whole entry): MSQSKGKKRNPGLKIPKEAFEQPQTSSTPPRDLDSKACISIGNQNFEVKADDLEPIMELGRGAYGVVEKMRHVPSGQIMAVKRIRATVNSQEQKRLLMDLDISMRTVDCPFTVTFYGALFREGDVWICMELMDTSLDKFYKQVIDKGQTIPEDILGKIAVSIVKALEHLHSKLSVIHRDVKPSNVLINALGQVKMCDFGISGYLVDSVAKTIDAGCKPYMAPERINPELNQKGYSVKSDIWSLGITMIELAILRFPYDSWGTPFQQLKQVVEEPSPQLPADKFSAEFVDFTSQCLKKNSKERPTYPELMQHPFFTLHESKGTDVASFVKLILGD

The target of test [4] is Platelet-derived growth factor receptor alpha (Homo sapiens, UniProt P16234).
The target of test [5] is T3, Mitogen-activated protein kinase kinase kinase kinase 3 (Homo sapiens, UniProt Q8IVH8).
T3 sequence (Q8IVH8 whole entry): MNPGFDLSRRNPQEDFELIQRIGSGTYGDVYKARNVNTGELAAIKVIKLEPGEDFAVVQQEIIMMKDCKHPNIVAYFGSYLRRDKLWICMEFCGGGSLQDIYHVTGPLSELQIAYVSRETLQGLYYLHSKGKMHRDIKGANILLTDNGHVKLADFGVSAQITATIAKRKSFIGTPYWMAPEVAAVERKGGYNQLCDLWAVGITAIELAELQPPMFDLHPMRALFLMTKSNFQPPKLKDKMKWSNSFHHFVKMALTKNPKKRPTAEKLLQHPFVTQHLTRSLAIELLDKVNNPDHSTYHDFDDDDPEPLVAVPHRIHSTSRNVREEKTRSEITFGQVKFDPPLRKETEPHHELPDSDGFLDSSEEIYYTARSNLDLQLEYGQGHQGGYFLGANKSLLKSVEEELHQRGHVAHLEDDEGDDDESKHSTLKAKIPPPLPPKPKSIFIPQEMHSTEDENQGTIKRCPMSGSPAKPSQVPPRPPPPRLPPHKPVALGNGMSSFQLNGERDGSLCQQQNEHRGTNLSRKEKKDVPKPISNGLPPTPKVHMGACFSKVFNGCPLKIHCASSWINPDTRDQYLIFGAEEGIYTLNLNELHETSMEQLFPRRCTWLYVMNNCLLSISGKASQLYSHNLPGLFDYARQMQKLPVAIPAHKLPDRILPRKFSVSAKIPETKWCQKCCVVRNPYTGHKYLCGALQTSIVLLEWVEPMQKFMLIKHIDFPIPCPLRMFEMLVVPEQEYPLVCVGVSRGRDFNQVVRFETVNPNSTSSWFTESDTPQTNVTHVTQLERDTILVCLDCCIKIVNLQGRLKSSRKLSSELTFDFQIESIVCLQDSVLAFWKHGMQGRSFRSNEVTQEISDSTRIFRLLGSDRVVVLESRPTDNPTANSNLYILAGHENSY

In test [6] the target is T4, 3-phosphoinositide-dependent protein kinase 1 (Homo sapiens, UniProt O15530).
T4 sequence (O15530 whole entry): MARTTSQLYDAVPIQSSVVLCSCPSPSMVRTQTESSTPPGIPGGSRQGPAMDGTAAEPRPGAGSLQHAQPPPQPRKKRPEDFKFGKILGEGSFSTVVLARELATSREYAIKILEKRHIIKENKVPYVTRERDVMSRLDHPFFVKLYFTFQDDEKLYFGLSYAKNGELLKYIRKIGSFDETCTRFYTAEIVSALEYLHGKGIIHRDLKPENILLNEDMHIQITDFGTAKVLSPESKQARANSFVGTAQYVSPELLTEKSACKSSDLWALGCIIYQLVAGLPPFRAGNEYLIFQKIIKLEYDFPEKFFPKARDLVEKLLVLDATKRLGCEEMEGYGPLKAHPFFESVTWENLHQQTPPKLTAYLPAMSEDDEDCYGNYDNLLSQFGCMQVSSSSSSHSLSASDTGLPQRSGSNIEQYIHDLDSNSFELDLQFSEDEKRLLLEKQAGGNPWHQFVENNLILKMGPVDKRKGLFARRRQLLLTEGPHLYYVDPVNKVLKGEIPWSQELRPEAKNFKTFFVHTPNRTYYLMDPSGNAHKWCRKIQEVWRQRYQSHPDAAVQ

Turning to `COCC(=O)NC/C=C/c1ccc2ncnc(Nc3ccc(Oc4ccc(C)nc4)c(C)c3)c2c1` [CP-724714], the Kd (in test [1]; on Ephrin type-B receptor 1; at eIF-2-alpha kinase GCN2; in test [2]; in test [3]; in test [4]) was > 10 µM throughout. Moreover, the Kd in test [5] and in test [6] was > 10 µM in each case.

`Nc1nc(Nc2ccc(S(N)(=O)=O)cc2)nn1C(=O)c1c(F)cccc1F` [JNJ-7706621]: the dissociation constant (Kd) was > 10 µM at Ephrin type-B receptor 1, 3.9 µM on eIF-2-alpha kinase GCN2 and 3.1 µM in test [6].

`CCOc1cc2ncc(C#N)c(Nc3ccc(F)c(Cl)c3)c2cc1NC(=O)/C=C/CN(C)C` [PELITINIB]: the Kd in test [1] is 1.8 µM; on eIF-2-alpha kinase GCN2, 0.29 µM; in test [2] it was > 10 µM; in test [3], > 10 µM; in test [4] it was > 10 µM; in test [6] it was > 10 µM.

With `Oc1ccc(-c2nc(-c3ccncc3)c(-c3ccc(F)cc3)[nH]2)cc1` [SB-202190], the dissociation constant (Kd) (in test [1]; on Ephrin type-B receptor 1; on eIF-2-alpha kinase GCN2; in test [2]; in test [3]; in test [4]) was > 10 µM each time. Besides, the dissociation constant Kd in test [5] and in test [6] was > 10 µM each time.

Regarding `NC(=O)c1ccc(-c2nc(-c3ccc4c(c3)OCO4)c(-c3ccccn3)[nH]2)cc1` [SB-431542], the Kd (in test [1]; at Ephrin type-B receptor 1; at eIF-2-alpha kinase GCN2; in test [2]; in test [3]; in test [4]) was > 10 µM throughout. The Kd in test [5] and in test [6] was > 10 µM each time.

The term Kd denotes the equilibrium constant for the complex coming apart.
